Measurements: patent US7037914B2, “Carboxylic acid derivative and a pharmaceutical composition containing the derivative as active ingredient” (Ono Pharmaceutical Co., Ltd., priority 1998, dated 2006)

Legend:
human PPAR δ = target: T1, human PPAR δ (Homo sapiens, UniProt Q03181); experiment: Luciferase assay using human PPAR δ (Gal4-PPAR chimeric receptor in CV-1 cells); assay type: cell-based; conditions: luciferase activity with solvent containing no compound defined as 1.0
T1 construct: expressed in transfected cells; host or cells: CV-1 cells
T1 sequence (Q03181 139-441): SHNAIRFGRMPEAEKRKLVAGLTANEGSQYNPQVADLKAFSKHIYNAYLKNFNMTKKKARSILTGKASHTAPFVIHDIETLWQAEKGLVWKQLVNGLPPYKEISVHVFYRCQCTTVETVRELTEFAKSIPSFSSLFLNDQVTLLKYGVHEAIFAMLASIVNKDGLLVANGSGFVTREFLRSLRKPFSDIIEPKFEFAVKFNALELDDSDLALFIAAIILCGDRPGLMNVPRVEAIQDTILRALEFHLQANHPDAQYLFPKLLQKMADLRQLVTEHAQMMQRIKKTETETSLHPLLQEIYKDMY

human PPAR α = target: T2, human PPAR α (Homo sapiens, UniProt Q07869); experiment: Luciferase assay using human PPAR α (Gal4-PPAR chimeric receptor in CV-1 cells); assay type: cell-based; conditions: compound 0.3 μM; luciferase activity of carbaprostacylin 10 μM defined as 1.0
T2 construct: expressed in transfected cells; host or cells: CV-1 cells
T2 sequence (Q07869 167-468): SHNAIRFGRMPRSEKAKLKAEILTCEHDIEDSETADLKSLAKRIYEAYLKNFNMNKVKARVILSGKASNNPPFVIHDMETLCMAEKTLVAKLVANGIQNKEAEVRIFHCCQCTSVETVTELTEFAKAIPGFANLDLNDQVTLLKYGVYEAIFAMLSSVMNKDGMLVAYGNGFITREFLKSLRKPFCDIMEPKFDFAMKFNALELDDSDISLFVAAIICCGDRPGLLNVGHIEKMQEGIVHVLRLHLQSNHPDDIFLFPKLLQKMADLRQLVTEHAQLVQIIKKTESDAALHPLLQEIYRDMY

SD rats = experiment: Hypocholesterolemic and hypolipidemic effects in normal rats; assay type: in vivo; conditions: 10 mg/kg orally, hypercholesterolemic food, blood sampled next day
Text: Hypocholesterolemic and hypolipidemic effects in normal rats:
Male, six-weeks old SD rats (seven rats per group) were left to take milled diet and water ad libitum and were acclimatized for 1 week.
At 9:00 on the first day of the experiment (Day 0) blood sampling was done from tail vein. The rats were divided into some groups by body weight, triglyceride(TG), non-esterified fatty acid (NEFA), total cholesterol (TC) values to minimize differences of the parameters among the groups. At 17:00 of the day the compound of the present invention suspended in 0.5% aqueous solution of carboxymethylcellulose (CMC) was orally administered at a dose of 10 mg/kg, and thereafter, with hypercholesterolemic food (5.5% peanut oil, 1.5% cholesterol and 0.5% cholic acid were mixed with milled CRF-1 diet, Charles River Inc.) was given to the rats.
At 9:00 of the next day, blood sampling was done from tail vein. The lipid values in blood (TG, NEFA and TC values) were measured.
There was no significant difference of the food intake between the control group (provided only 0.5% CMC) and the group treated with the compounds of the present invention.

human PPAR γ = target: T3, human PPAR γ (Homo sapiens, UniProt P37231); experiment: Luciferase assay using human PPAR γ (Gal4-PPAR chimeric receptor in CV-1 cells); assay type: cell-based; conditions: compound 1.0 μM; luciferase activity of troglitazone 10 μM defined as 1.0
T3 construct: expressed in transfected cells; host or cells: CV-1 cells
T3 sequence (P37231 176-477 isoform P37231-2): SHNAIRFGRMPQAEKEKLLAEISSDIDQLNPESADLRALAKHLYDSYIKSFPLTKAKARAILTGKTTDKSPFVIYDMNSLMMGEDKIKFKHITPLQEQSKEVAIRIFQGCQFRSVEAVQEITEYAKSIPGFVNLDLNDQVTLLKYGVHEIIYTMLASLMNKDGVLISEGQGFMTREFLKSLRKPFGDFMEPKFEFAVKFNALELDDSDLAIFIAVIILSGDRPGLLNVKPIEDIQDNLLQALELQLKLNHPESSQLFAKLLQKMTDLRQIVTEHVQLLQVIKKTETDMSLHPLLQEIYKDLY

KKAy/Ta mice = experiment: Hypoglycemic and hypolipidemic effects in KKAy mice; assay type: in vivo; conditions: 3 days, food containing 0.03 % (w/w) compound, 38.9 mg/kg/day (converted)
Text: Hypoglycemic and hypolipidemic effects in KKAy mice:
Male, 7-weeks old KKAy/Ta mice weighed from […] (seven mice per group) were pre-breaded for approximately one week and acclimatized for three days on milled diet. On the first day of the experiment (Day 0), mice were divided into some groups by weight, plasma glucose and triglyceride (TG) levels to minimize the differences among groups. From the next day for two days they were given compounds by food mixture containing 0.03 % (w/w) of the compound of the present invention or by milled diet only. At 13:00 of the third day, blood samples were collected and glucose and TG were measured. Additionally, there was no significant difference in the food intake between control group (milled diet only) and compounds-treated group (milled diet containing 0.03 % compounds).

SMILES | PPAR δ agonist activity, relative activity (human PPAR δ; concentration 1.0 μM) | PPAR δ agonist activity, relative activity (human PPAR δ; concentration 10.0 μM) | PPAR α agonist activity, Relative Activity (human PPAR α) | also measured
Cc1oc(-c2ccccc2)nc1CCOc1cccc(CC(=O)O)c1 [Example 2 (22)] | 9.3 | 66.7 | – | –
O=C(O)CSCc1cccc(OCc2ccc(-c3ccccc3)cc2)c1 [Example 2 (11), 2-(3-(biphenyl-4-ylmethoxy)phenylmethylthio)acetic acid] | – | – | 3.2 | –
Cc1oc(-c2ccccc2)nc1CCOc1cccc(CSCC(=O)O)c1 [Example 2 (12), 2-(3-(2-(5-methyl-2-phenyloxazol-4-yl)ethoxy)phenylmethylthio)acetic acid] | – | – | 1.7 | TG value (SD rats; control 147 ± 9): 100 ± 14 mg/dL; TC value (SD rats; control 188 ± 5): 70 ± 5 mg/dL; NEFA value (SD rats; control 489 ± 66): 178 ± 14 μEq/l; PPAR γ agonist activity, Relative Activity (human PPAR γ): 1.4; glycemic value (KKAy/Ta mice; control 495 ± 35): 214 ± 19 mg/dL; TG value (KKAy/Ta mice; control 558 ± 107): 221 ± 66 mg/dL
Cc1oc(-c2ccc3c(c2)OCO3)nc1CCOc1cccc(CC(=O)O)c1 [Example 2 (93), 2-(3-(2-(5-methyl-2-(1,3-dioxaindan-5-yl)oxazol-4-yl)ethoxy)phenyl)acetic acid] | 36.1 | 54.7 | – | –
Cc1oc(-c2ccccc2)nc1CCOc1cccc(CCCC(=O)O)c1 [Example 2 (5), 4-(3-(2-(5-methyl-2-phenyloxazol-4-yl)ethoxy)phenyl)butanoic acid] | – | – | 0.8 | –
